Reference: patent US12146167B2 (priority 2021, dated 2024)

Columns and labels:
Settings in all cases: pH 7.5
[1] = tested on: Cg_MetY (O-acetylhomoserine sulfhydrylase metY, SEQ ID NO: 2); assay type: biochemical, Corynebacterium glutamicum ATCC 13032
[2] = tested on: Cg_MetY_P2T (O-acetylhomoserine sulfhydrylase variant metY_P2T, SEQ ID NO: 6); assay type: biochemical, Corynebacterium glutamicum ATCC 13032
[3] = tested on: Cv_MetZ (O-succinylhomoserine sulfhydrylase metZ, SEQ ID NO: 10); assay type: biochemical, Chromobacterium violaceum ATCC 12472
[4] = tested on: Hn_MetZ (O-succinylhomoserine sulfhydrylase metZ, SEQ ID NO: 14); assay type: biochemical, Hyphomonas neptunium ATCC 15444

Measured: Product

CS [MM, methyl mercaptane]
yes: all assays above
